Results on 32 compounds are retold here after US11192891B2, “Diazaspiro ROCK inhibitors” (BRISTOL-MYERS SQUIBB COMPANY, priority 2017, dated 2021).

The structures appear in SMILES notation.

The target of this assay is ROCK2 (Homo sapiens, UniProt O75116). Kind of assay: ROCK kinase inhibition assay, FITC peptide substrate, LABCHIP 3000 readout. The format is biochemical. Conditions: 5 μM ATP, 1.5 μM peptide substrate. In outline: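 Rho kinase variants started the reaction with compound present (DMSO <2%); after incubation, EDTA stop, and phosphorylated and non-phosphorylated peptide separated by microfluidic electrophoresis. Dose-response format, inhibition calculated at each concentration.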
ROCK2, sequence (O75116 whole entry, species assumed): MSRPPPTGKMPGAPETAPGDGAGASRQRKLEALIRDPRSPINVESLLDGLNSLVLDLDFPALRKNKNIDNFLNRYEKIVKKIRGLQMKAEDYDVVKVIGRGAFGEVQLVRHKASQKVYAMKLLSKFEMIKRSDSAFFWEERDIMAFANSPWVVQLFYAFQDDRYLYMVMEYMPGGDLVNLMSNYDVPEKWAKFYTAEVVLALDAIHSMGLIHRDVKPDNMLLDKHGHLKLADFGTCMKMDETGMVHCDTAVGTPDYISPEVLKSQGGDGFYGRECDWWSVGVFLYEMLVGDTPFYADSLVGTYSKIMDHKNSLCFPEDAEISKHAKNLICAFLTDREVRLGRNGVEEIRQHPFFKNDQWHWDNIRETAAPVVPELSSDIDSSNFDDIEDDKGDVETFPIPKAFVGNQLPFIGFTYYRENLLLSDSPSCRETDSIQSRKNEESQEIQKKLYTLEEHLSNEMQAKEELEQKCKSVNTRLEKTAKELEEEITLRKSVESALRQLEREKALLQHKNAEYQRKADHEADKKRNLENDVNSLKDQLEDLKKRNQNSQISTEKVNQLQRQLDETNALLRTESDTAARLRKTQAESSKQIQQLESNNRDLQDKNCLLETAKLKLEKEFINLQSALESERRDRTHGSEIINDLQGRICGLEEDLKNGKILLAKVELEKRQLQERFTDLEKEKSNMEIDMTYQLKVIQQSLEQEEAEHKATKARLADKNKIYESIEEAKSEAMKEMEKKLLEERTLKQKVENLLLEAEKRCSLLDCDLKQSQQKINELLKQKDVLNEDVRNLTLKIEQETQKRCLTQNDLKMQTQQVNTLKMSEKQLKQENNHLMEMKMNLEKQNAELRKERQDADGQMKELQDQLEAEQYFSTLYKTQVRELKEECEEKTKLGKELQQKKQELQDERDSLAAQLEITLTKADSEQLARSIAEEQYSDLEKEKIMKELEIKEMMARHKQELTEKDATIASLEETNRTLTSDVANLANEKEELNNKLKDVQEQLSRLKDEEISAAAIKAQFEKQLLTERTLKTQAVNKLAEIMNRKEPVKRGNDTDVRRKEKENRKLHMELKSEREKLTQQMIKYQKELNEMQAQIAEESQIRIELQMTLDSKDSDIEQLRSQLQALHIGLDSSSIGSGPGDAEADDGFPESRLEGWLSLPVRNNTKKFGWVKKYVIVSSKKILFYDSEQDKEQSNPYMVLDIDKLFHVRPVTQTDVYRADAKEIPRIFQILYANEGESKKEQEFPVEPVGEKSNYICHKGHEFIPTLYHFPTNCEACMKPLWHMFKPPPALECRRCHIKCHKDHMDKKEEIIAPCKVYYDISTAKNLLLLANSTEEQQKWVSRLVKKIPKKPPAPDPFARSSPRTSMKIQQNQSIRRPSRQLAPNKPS
For the compound `COc1cc(N2CCC3(CCN(C(=O)c4ccc(-c5nnc(C)o5)cc4)CC3)C2=O)ccc1-c1cn[nH]c1` [Example 162, 2-[3-methoxy-4-(1H-pyrazol-4-yl)phenyl]-8-[4-(5-methyl-1,3,4-oxadiazol-2-yl)benzoyl]-2,8-diazaspiro[4.5]decan-1-one], the IC50 is 27 nM.

`COc1cc(N2CCC3(CCN(C(=O)c4ccc(-c5nnco5)cc4)CC3)C2=O)ccc1-c1cn[nH]c1` [Example 163, 2-[3-methoxy-4-(1H-pyrazol-4-yl)phenyl]-8-[4-(1,3,4-oxadiazol-2-yl)benzoyl]-2,8-diazaspiro[4.5]decan-1-one]: half-maximal inhibition (IC50) was put at 16 nM. Compared with the last compound, the IC50 is about 1.7-fold lower. On to `COc1cc(N2CCC3(CCN(C(=O)c4ccc5c(c4)ncn5C)CC3)C2=O)ccc1-c1cn[nH]c1` [Example 164, 2-[3-methoxy-4-(1H-pyrazol-4-yl)phenyl]-8-(1-methyl-1H-1,3-benzodiazole-5-carbonyl)-2,8-diazaspiro[4.5]decan-1-one], for which the half-inhibitory concentration (IC50) worked out at 2.6 nM.

In the case of `COc1cc(N2CCC3(CCN(C(=O)c4cc5cnccc5nc4C)CC3)C2=O)ccc1-c1cn[nH]c1` [Example 165, 2-[3-methoxy-4-(1H-pyrazol-4-yl)phenyl]-8-(2-methyl-1,6-naphthyridine-3-carbonyl)-2,8-diazaspiro[4.5]decan-1-one], the half-inhibitory concentration (IC50) came to 896 nM.

Take `COc1cc(N2CCC3(CCN(C(=O)c4ccc5cnccc5c4)CC3)C2=O)ccc1-c1cn[nH]c1` [Example 166, 8-(isoquinoline-6-carbonyl)-2-[3-methoxy-4-(1H-pyrazol-4-yl)phenyl]-2,8-diazaspiro[4.5]decan-1-one]: half-maximal inhibition (IC50) was put at 33 nM. On to `COc1cc(N2CCC3(CCN(C(=O)c4ccc(CN5CCCC5)cc4)CC3)C2=O)ccc1-c1cn[nH]c1` [Example 168, 2-[3-methoxy-4-(1H-pyrazol-4-yl)phenyl]-8-{4-[(pyrrolidin-1-yl)methyl]benzoyl}-2,8-diazaspiro[4.5]decan-1-one], for which half-maximal inhibition (IC50) was put at 17 nM. In turn, `COc1cc(N2CCC3(CCN(C(=O)c4ccc(CS(C)(=O)=O)cc4)CC3)C2=O)ccc1-c1cn[nH]c1` [Example 169, 8-[4-(methanesulfonylmethyl)benzoyl]-2-[3-methoxy-4-(1H-pyrazol-4-yl)phenyl]-2,8-diazaspiro[4.5]decan-1-one] came in with a half-inhibitory concentration (IC50) of 13 nM. Regarding `COc1ccc2cc(C(=O)N3CCC4(CC3)CCN(c3ccc(-c5cn[nH]c5)c(OC)c3)C4=O)n(C)c2c1` [Example 170, 8-(6-methoxy-1-methyl-1H-indole-2-carbonyl)-2-[3-methoxy-4-(1H-pyrazol-4-yl)phenyl]-2,8-diazaspiro[4.5]decan-1-one], the midpoint of inhibition, the IC50, lay at 118 nM. Compared with the last compound, the IC50 is about 9.1-fold higher. Under `COc1cc(N2CCC3(CCN(C(=O)c4ccc(-c5ccncc5)cc4)CC3)C2=O)ccc1-c1cn[nH]c1` [Example 171, 2-[3-methoxy-4-(1H-pyrazol-4-yl)phenyl]-8-[4-(pyridin-4-yl)benzoyl]-2,8-diazaspiro[4.5]decan-1-one] stands 5.5 nM; under `COc1cc(N2CCC3(CCN(C(=O)C4CCN(C)CC4)CC3)C2=O)ccc1-c1cn[nH]c1` [Example 172, 2-[3-methoxy-4-(1H-pyrazol-4-yl)phenyl]-8-(1-methylpiperidine-4-carbonyl)-2,8-diazaspiro[4.5]decan-1-one], 2070 nM; under `COc1cc(N2CCC3(CCN(C(=O)c4ccc(-c5ccc(S(C)(=O)=O)cc5)cc4)CC3)C2=O)ccc1-c1cn[nH]c1` [Example 173, 8-{4′-methanesulfonyl-[1,1′-biphenyl]-4-carbonyl}-2-[3-methoxy-4-(1H-pyrazol-4-yl)phenyl]-2,8-diazaspiro[4.5]decan-1-one], 3.7 nM. As to `COc1ccc(C(=O)N2CCC3(CC2)CCN(c2ccc(-c4cn[nH]c4)c(OC)c2)C3=O)c(OC)c1` [Example 174, 8-(2,4-dimethoxybenzoyl)-2-[3-methoxy-4-(1H-pyrazol-4-yl)phenyl]-2,8-diazaspiro[4.5]decan-1-one], it took 29 nM to reach half-maximal inhibition (IC50). `COc1cc(N2CCC3(CCN(C(=O)C4CCN(c5ccncc5)CC4)CC3)C2=O)ccc1-c1cn[nH]c1` [Example 175, 2-[3-methoxy-4-(1H-pyrazol-4-yl)phenyl]-8-[1-(pyridin-4-yl)piperidine-4-carbonyl]-2,8-diazaspiro[4.5]decan-1-one] displayed an IC50 of 195 nM. Compared with the last compound, the IC50 is about 6.7-fold higher.

For `COc1ccc2cc(C(=O)N3CCC4(CC3)CCN(c3ccc(-c5cn[nH]c5)c(OC)c3)C4=O)ccc2c1` [Example 176, 2-[3-methoxy-4-(1H-pyrazol-4-yl)phenyl]-8-(6-methoxynaphthalene-2-carbonyl)-2,8-diazaspiro[4.5]decan-1-one], half-maximal inhibition (IC50) was put at 20 nM. `COc1cc(N2CCC3(CCN(C(=O)c4ccc5c(c4)CC(=O)N5)CC3)C2=O)ccc1-c1cn[nH]c1` [Example 177, 2-[3-methoxy-4-(1H-pyrazol-4-yl)phenyl]-8-(2-oxo-2,3-dihydro-1H-indole-5-carbonyl)-2,8-diazaspiro[4.5]decan-1-one]: the IC50 was found to be 78 nM.

`COc1cc2cc(C(=O)N3CCC4(CC3)CCN(c3ccc(-c5cn[nH]c5)c(OC)c3)C4=O)n(C)c2cc1OC` [Example 178] yielded an IC50 of 14 nM. The same measure for `COc1cc(N2CCC3(CCN(C(=O)c4ccc5c(c4)nc(C)n5C)CC3)C2=O)ccc1-c1cn[nH]c1` [Example 179, 8-(1,2-dimethyl-1H-1,3-benzodiazole-5-carbonyl)-2-[3-methoxy-4-(1H-pyrazol-4-yl)phenyl]-2,8-diazaspiro[4.5]decan-1-one]: 2.3 nM. Regarding `COc1cc(N2CCC3(CCN(C(=O)c4ccc(CN5CCOCC5)cc4)CC3)C2=O)ccc1-c1cn[nH]c1` [Example 180, 2-[3-methoxy-4-(1H-pyrazol-4-yl)phenyl]-8-{4-[(morpholin-4-yl)methyl]benzoyl}-2,8-diazaspiro[4.5]decan-1-one], the IC50 is 27 nM. The same measure for `COc1cc(N2CCC3(CCN(C(=O)c4ccc(C(N)=O)cc4)CC3)C2=O)ccc1-c1cn[nH]c1` [Example 181, 4-{2-[3-methoxy-4-(1H-pyrazol-4-yl)phenyl]-1-oxo-2,8-diazaspiro[4.5]decane-8-carbonyl}benzamide]: 35 nM; for `COc1cc(N2CCC3(CCN(C(=O)c4ccc5nc(-c6ccncc6)[nH]c5c4)CC3)C2=O)ccc1-c1cn[nH]c1` [Example 182, 2-[3-methoxy-4-(1H-pyrazol-4-yl)phenyl]-8-[2-(pyridin-4-yl)-1H-1,3-benzodiazole-6-carbonyl]-2,8-diazaspiro[4.5]decan-1-one]: 16 nM. Take `COc1cc(N2CCC3(CCN(C(=O)c4ccc(Cn5ccnc5)cc4)CC3)C2=O)ccc1-c1cn[nH]c1` [Example 183, 8-{4-[(1H-imidazol-1-yl)methyl]benzoyl}-2-[3-methoxy-4-(1H-pyrazol-4-yl)phenyl]-2,8-diazaspiro[4.5]decan-1-one]: 23 nM corresponded to half-maximal inhibition (IC50). As for `COc1ccc(C(=O)N2CCC3(CC2)CCN(c2ccc(-c4cn[nH]c4)c(OC)c2)C3=O)c(OCc2ccccc2)c1` [Example 184, 8-[2-(benzyloxy)-4-methoxybenzoyl]-2-[3-methoxy-4-(1H-pyrazol-4-yl)phenyl]-2,8-diazaspiro[4.5]decan-1-one], the IC50 turned out to be 12 nM. `COc1cc(N2CCC3(CCN(C(=O)c4ccc(-c5nc(C)no5)cc4)CC3)C2=O)ccc1-c1cn[nH]c1` [Example 185, 2-[3-methoxy-4-(1H-pyrazol-4-yl)phenyl]-8-[4-(3-methyl-1,2,4-oxadiazol-5-yl)benzoyl]-2,8-diazaspiro[4.5]decan-1-one] registered an IC50 of 37 nM. Take `COc1cc(N2CCC3(CCN(C(=O)c4ccc(N5CCN(Cc6cccc(Cl)c6)CC5)cc4)CC3)C2=O)ccc1-c1cn[nH]c1` [Example 186, 8-(4-{4-[(3-chlorophenyl)methyl]piperazin-1-yl}benzoyl)-2-[3-methoxy-4-(1H-pyrazol-4-yl)phenyl]-2,8-diazaspiro[4.5]decan-1-one]: the IC50 came to 1.2 nM.

Regarding `COc1cc(N2CCC3(CCN(C(=O)c4cc(C)[nH]n4)CC3)C2=O)ccc1-c1cn[nH]c1` [Example 187, 2-[3-methoxy-4-(1H-pyrazol-4-yl)phenyl]-8-(5-methyl-1H-pyrazole-3-carbonyl)-2,8-diazaspiro[4.5]decan-1-one], inhibition was half-maximal at 27 nM (IC50). With `COc1cc(N2CCC3(CCN(C(=O)c4cc(C)n(C)n4)CC3)C2=O)ccc1-c1cn[nH]c1` [Example 188, 8-(1,5-dimethyl-1H-pyrazole-3-carbonyl)-2-[3-methoxy-4-(1H-pyrazol-4-yl)phenyl]-2,8-diazaspiro[4.5]decan-1-one], the midpoint of inhibition, the IC50, lay at 31 nM. `COc1cc(N2CCC3(CCN(C(=O)c4ccc(N)cc4Cl)CC3)C2=O)ccc1-c1cn[nH]c1` [Example 189, 8-(4-amino-2-chlorobenzol)-2-[3-methoxy-4-(1H-pyrazol-4-yl)phenyl]-2,8-diazaspiro[4.5]decan-1-one]: the IC50 stood at 38 nM.

In the case of `COc1cc(N2CCC3(CCN(C(=O)c4ccc(N5CCCC5)cc4)CC3)C2=O)ccc1-c1cn[nH]c1` [Example 191], the IC50 turned out to be 4 nM. In the case of `COc1cc(N2CCC3(CCN(C(=O)c4ccc(N5CCCCS5(=O)=O)cc4)CC3)C2=O)ccc1-c1cn[nH]c1` [Example 192, 8-(4-(1,1-dioxido-1,2-thiazinan-2-yl)benzoyl)-2-(3-methoxy-4-(1H-pyrazol-4-yl)phenyl)-2,8-diazaspiro[4.5]decan-1-one], inhibition was half-maximal at 3.3 nM (IC50). Turning to `COc1cc(N2CCC3(CCN(C(=O)c4ccc(-n5cccc5)cc4)CC3)C2=O)ccc1-c1cn[nH]c1` [Example 193, 2-[3-methoxy-4-(1H-pyrazol-4-yl)phenyl]-8-[4-(1H-pyrrol-1-yl)benzoyl]-2,8-diazaspiro[4.5]decan-1-one], the IC50 came out at 12 nM. This IC50 lies about 3.6-fold higher than the previous one. In the case of `CCN(CC)c1ccc(C(=O)N2CCC3(CC2)CCN(c2ccc(-c4cn[nH]c4)c(OC)c2)C3=O)cc1` [Example 194, 8-[4-(diethylamino)benzoyl]-2-[3-methoxy-4-(1H-pyrazol-4-yl)phenyl]-2,8-diazaspiro[4.5]decan-1-one], the IC50 amounted to 5.2 nM. Take `COc1cc(N2CCC3(CCN(C(=O)c4ccc(Br)cc4)CC3)C2=O)ccc1-c1cn[nH]c1` [Example 195, 8-(4-bromobenzoyl)-2-[3-methoxy-4-(1H-pyrazol-4-yl)phenyl]-2,8-diazaspiro[4.5]decan-1-one]: the IC50 amounted to 33 nM.

By IC50 is commonly meant the concentration needed to halve the response being measured. Low readings indicate greater potency, high ones weaker potency.
